The NIST ThermoML archive (doi:10.1016/j.jct.2012.08.014)

Settings: Liquid, Vibrating tube method

OCCO [1,2-ethanediol]
mass density [kg/m3]
Settings	278.15 K	288.15 K	298.15 K	308.15 K	318.15 K	328.15 K	338.15 K	348.15 K	358.15 K
100 kPa	1122.4	1115.8	1109	1102.2	1095.2	1088.2	1080.9	1073.6	1066.1
1000 kPa	1122.6	1116	1109.2	1102.4	1095.4	1088.3	1081.2	1073.9	1066.2
5000 kPa	1124.1	1117.6	1110.9	1104.1	1097.1	1090.2	1083.1	1075.8	1068.2
10000 kPa	1126	1119.5	1112.9	1106.1	1099.2	1092.3	1085.4	1078.1	1070.7
15000 kPa	1127.8	1121.5	1114.9	1108.2	1101.3	1094.4	1087.6	1080.4	1073.1
20000 kPa	1129.6	1123.3	–	–	–	–	1089.8	1082.7	1075.4
25000 kPa	1131.4	1125.2	1118.7	1112.1	1105.3	1098.6	1091.9	1084.9	1077.8
30000 kPa	1133.1	1127	1120.6	1114	1107.3	1100.6	1094	1087	1079.9
35000 kPa	1134.8	1128.8	1122.4	1115.9	1109.3	–	–	–	1082.1
40000 kPa	1136.6	1130.6	1124.3	1117.7	1111.2	1104.6	1097.9	1091.3	1084.3
45000 kPa	1138.2	1132.3	1126.1	1119.6	1113.1	1106.5	1099.9	1093.4	1086.5
50000 kPa	1139.9	1134.1	1127.8	1121.4	1115	1108.4	1101.9	1095.3	–
55000 kPa	1141.6	1135.7	1129.6	1123.2	–	–	1103.9	1097.3	1090.7
60000 kPa	1143.3	1137.4	1131.3	1125	1118.6	1112.1	1105.8	1099.4	1092.7

CC(O)CO (stereo not drawn) [1,2-propanediol]
mass density [kg/m3]
Settings	278.15 K	288.15 K	298.15 K	308.15 K	318.15 K	328.15 K	338.15 K	348.15 K	358.15 K
100 kPa	1047.1	1039.9	1032.5	1025.3	1017.7	1010	1002.2	994.1	985.8
1000 kPa	1047.3	1040.2	1032.9	1025.5	1018	1010.3	1002.4	994.5	986.2
5000 kPa	1049.2	1042.1	1034.8	1027.5	1020.2	1012.7	1004.8	996.9	988.8
10000 kPa	1051.2	1044.4	1037.2	1030.1	1022.8	1015.4	1007.6	999.9	991.9
15000 kPa	1053.4	1046.7	1039.6	1032.5	1025.4	1018	1010.4	1002.8	995
20000 kPa	1055.5	1048.9	1041.9	1034.9	1027.9	1020.6	1013	1005.5	997.8
25000 kPa	1057.6	1051.1	1044.1	1037.2	1030.3	1023.1	1015.6	1008.2	1000.6
30000 kPa	1059.6	1053.2	1046.3	1039.5	1032.7	1025.6	1018.2	1010.9	1003.4
35000 kPa	1061.6	1055.4	1048.4	1041.6	1035	1027.9	1020.7	1013.4	1006
40000 kPa	1063.6	1057.4	1050.6	1043.8	1037.2	1030.3	1023.2	1016	1008.5
45000 kPa	1065.6	1059.4	1052.5	1046	1039.4	1032.5	1025.5	1018.4	1011.2
50000 kPa	1067.5	1061.4	1054.6	1048.1	1041.5	1034.7	1027.9	1020.9	1013.6
55000 kPa	1069.3	1063.4	1056.6	1050.1	1043.6	1036.9	1030.2	1023.2	1016.1
60000 kPa	1071.4	1065.3	1058.5	1052.2	1045.7	1039	1032.4	1025.6	1018.5

CCC(O)CO (stereo not drawn) [1,2-butanediol]
mass density [kg/m3]
Settings	278.15 K	288.15 K	298.15 K	308.15 K	318.15 K	328.15 K	338.15 K	348.15 K	358.15 K
100 kPa	1013.4	1006.2	998.7	991.1	983.4	975.7	967.8	959.7	951.3
1000 kPa	1013.7	1006.5	999.1	991.5	983.8	976.2	968.3	960.2	952
5000 kPa	1015.7	1008.6	1001.2	993.7	986.1	978.6	970.7	962.8	954.6
10000 kPa	1018.1	1011.1	1003.8	996.5	988.9	981.5	973.9	966.2	958.1
15000 kPa	1020.5	1013.5	1006.3	999.1	991.7	984.4	976.8	969.2	961.4
20000 kPa	1022.8	1015.9	1008.8	1001.6	994.3	987.2	979.8	972.2	964.5
25000 kPa	1025	1018.2	1011.3	1004.1	997	989.9	982.6	975.2	967.5
30000 kPa	1027.2	1020.5	1013.6	1006.5	999.4	992.5	985.3	978	970.5
35000 kPa	1029.2	1022.7	1015.9	1008.9	1001.9	995.1	987.9	980.7	973.5
40000 kPa	1031.2	1024.7	1018.2	1011.2	1004.4	997.6	990.5	983.4	976.2
45000 kPa	1033.3	1026.7	1020.3	1013.5	1006.7	999.9	993.1	986.1	978.8
50000 kPa	1035.3	1028.8	1022.5	1015.7	1009	1002.2	995.5	988.6	981.4
55000 kPa	1037.3	1030.8	1024.5	1017.9	1011.3	1004.7	997.9	991.1	984
60000 kPa	1039.2	1033	1026.7	1020	1013.5	1006.9	1000.3	993.4	986.5
